Biological target: T1, AbXOD (Acinetobacter baumannii xanthine oxidase; "wild-type" = AbXDH Y351V) (Acinetobacter baumannii, UniProt A0A0U3AJU6)
T1 construct: gene xdhB
Conditions: 50 mmol/L Tris/HCl pH 8.5, 40 °C; apparent Km; paper's wild-type carries Y351V in A subunit; substrate inhibition constant; second site

O=c1[nH]c(=O)c2[nH]cnc2[nH]1 [xanthine]
Ki: 21.11 mM

From publication PMC9944496 (Food Chemistry: X, 2023)
